Experimental data published in patent US20020065219A1, “Water soluble thiazolyl peptide derivatives” (priority 2000, published 2002).
Values after ≈ are worked out from the molar mass of the structure shown. Where two headings read alike, the source gives them in different places.

Columns and labels:
Assay in all cases: MIC, broth micro dilution assay (NCCLS)
Type in all cases: cell-based
[1] = test system: Streptococcus pneumoniae A28272
[2] = test system: Staphylococcus aureus A15090
[3] = test system: Enterococcus faecalis A20688
[4] = 50% Mueller-Hinton medium and 50% Todd Hewitt medium, 35° C., 18 hours
[5] = Mueller-Hinton medium, 35° C., 18 hours

CO/C(C)=C1/NC(=O)C(C(C)O)NC(=O)c2csc(n2)-c2cc(O)c(-c3nc(C(=O)NC(CNCCCCN)C(N)=O)cs3)nc2-c2csc(n2)C2COC(=O)c3c4c5c(cccc5n3O)COC(=O)C(O[C@H]3C[C@](C)(O)[C@H](N(C)C)[C@H](C)O3)C(OC4)C(NC(=O)c3csc1n3)c1nc(cs1)C(=O)N2 (stereo partly drawn) [Example 11]
MIC (μg/mL) against Streptococcus pneumoniae A28272 [1, 4]: 0.5 µg/mL (≈ 0.328 µM)
MIC (μg/mL) against Staphylococcus aureus A15090 [2, 5]: 2.0 µg/mL (≈ 1.31 µM)
MIC (μg/mL) against Enterococcus faecalis A20688 [3, 5]: 8.0 µg/mL (≈ 5.24 µM)

COC(C)=C1NC(=O)C(C(C)O)NC(=O)c2csc(n2)-c2cc(O)c(-c3nc(C(=O)NC(CN4CCN(Cc5nc(OC)cc(OC)n5)CC4)C(N)=O)cs3)nc2-c2csc(n2)C2COC(=O)c3c4c5c(cccc5n3O)COC(=O)C(OC3CC(C)(O)C(N(C)C)C(C)O3)C(OC4)C(NC(=O)c3csc1n3)c1nc(cs1)C(=O)N2 (stereo not drawn) [Example 77]
MIC (μg/mL) against Streptococcus pneumoniae A28272 [1]: 0.015 µg/mL (≈ 0.00895 µM)
MIC (μg/mL) against Staphylococcus aureus A15090 [2]: 0.125 µg/mL (≈ 0.0746 µM)
MIC (μg/mL) against Enterococcus faecalis A20688 [3]: 0.5 µg/mL (≈ 0.298 µM)

COC(C)=C1NC(=O)C(C(C)O)NC(=O)c2csc(n2)-c2cc(O)c(-c3nc(C(=O)NC(CNC(CO)Cc4c[nH]cn4)C(N)=O)cs3)nc2-c2csc(n2)C2COC(=O)c3c4c5c(cccc5n3O)COC(=O)C(OC3CC(C)(O)C(N(C)C)C(C)O3)C(OC4)C(NC(=O)c3csc1n3)c1nc(cs1)C(=O)N2 (stereo not drawn) [Example 66]
MIC (μg/mL) against Streptococcus pneumoniae A28272 [1, 4]: 2.0 µg/mL (≈ 1.27 µM)
MIC (μg/mL) against Staphylococcus aureus A15090 [2, 5]: 2.0 µg/mL (≈ 1.27 µM)
MIC (μg/mL) against Enterococcus faecalis A20688 [3, 5]: 16 µg/mL (≈ 10.1 µM)

CO/C(C)=C1/NC(=O)C(C(C)O)NC(=O)c2csc(n2)-c2cc(O)c(-c3nc(C(=O)NC(CS(=O)(=O)C4C[N+]5([O-])CCC4CC5)C(N)=O)cs3)nc2-c2csc(n2)C2COC(=O)c3c4c5c(cccc5n3O)COC(=O)C(OC3CC(C)(O)C([N+](C)(C)[O-])C(C)O3)C(OC4)C(NC(=O)c3csc1n3)c1nc(cs1)C(=O)N2 (stereo not drawn) [Example 105]
MIC ([1]; Streptococcus pneumoniae, A28272, 18 h, read-out: MIC (μg/mL) against Streptococcus pneumoniae A28272): 0.25 µg/mL (≈ 0.152 µM)
MIC ([2]; Staphylococcus aureus, A15090, 18 h, read-out: MIC (μg/mL) against Staphylococcus aureus A15090): 1 µg/mL (≈ 0.608 µM)
MIC ([3]; Enterococcus faecalis, A20688, 18 h, read-out: MIC (μg/mL) against Enterococcus faecalis A20688): 2 µg/mL (≈ 1.22 µM)

CO/C(C)=C1/NC(=O)C(C(C)O)NC(=O)c2csc(n2)-c2cc(O)c(-c3nc(C(=O)NC(CN4C[C@H](C)NC[C@@H]4C)C(N)=O)cs3)nc2-c2csc(n2)C2COC(=O)c3c4c5c(cccc5n3O)COC(=O)C(O[C@H]3C[C@](C)(O)[C@H](N(C)C)[C@H](C)O3)C(OC4)C(NC(=O)c3csc1n3)c1nc(cs1)C(=O)N2 (stereo partly drawn) [Example 59]
MIC (μg/mL) against Streptococcus pneumoniae A28272 [1, 4]: 0.25 µg/mL (≈ 0.161 µM)
MIC (μg/mL) against Staphylococcus aureus A15090 [2, 5]: 1.0 µg/mL (≈ 0.644 µM)
MIC (μg/mL) against Enterococcus faecalis A20688 [3, 5]: 2.0 µg/mL (≈ 1.29 µM)

CO/C(C)=C1/NC(=O)C(C(C)O)NC(=O)c2csc(n2)-c2cc(O)c(-c3nc(C(=O)NC(CNCCNC(C)=O)C(N)=O)cs3)nc2-c2csc(n2)C2COC(=O)c3c4c5c(cccc5n3O)COC(=O)C(O[C@H]3C[C@](C)(O)[C@H](N(C)C)[C@H](C)O3)C(OC4)C(NC(=O)c3csc1n3)c1nc(cs1)C(=O)N2 (stereo partly drawn) [Example 16]
MIC (μg/mL) against Streptococcus pneumoniae A28272 [1, 4]: 0.125 µg/mL (≈ 0.0812 µM)
MIC (μg/mL) against Staphylococcus aureus A15090 [2, 5]: 1.0 µg/mL (≈ 0.649 µM)
MIC (μg/mL) against Enterococcus faecalis A20688 [3, 5]: 4.0 µg/mL (≈ 2.6 µM)

CO/C(C)=C1/NC(=O)C(C(C)O)NC(=O)c2csc(n2)-c2cc(O)c(-c3nc(C(=O)NC(CN(C)CCc4ccccn4)C(N)=O)cs3)nc2-c2csc(n2)C2COC(=O)c3c4c5c(cccc5n3O)COC(=O)C(O[C@H]3C[C@](C)(O)[C@H](N(C)C)[C@H](C)O3)C(OC4)C(NC(=O)c3csc1n3)c1nc(cs1)C(=O)N2 (stereo partly drawn) [Example 20]
MIC (μg/mL) against Streptococcus pneumoniae A28272 [1, 4]: 0.005 µg/mL (≈ 0.00318 µM)
MIC (μg/mL) against Staphylococcus aureus A15090 [2, 5]: 0.125 µg/mL (≈ 0.0794 µM)
MIC (μg/mL) against Enterococcus faecalis A20688 [3, 5]: 0.25 µg/mL (≈ 0.159 µM)

CO/C(C)=C1/NC(=O)C(C(C)O)NC(=O)c2csc(n2)-c2cc(O)c(-c3nc(C(=O)NC(CN4CCN(c5ccncc5)CC4)C(N)=O)cs3)nc2-c2csc(n2)C2COC(=O)c3c4c5c(cccc5n3O)COC(=O)C(O[C@H]3C[C@](C)(O)[C@H](N(C)C)[C@H](C)O3)C(OC4)C(NC(=O)c3csc1n3)c1nc(cs1)C(=O)N2 (stereo partly drawn) [Example 52]
MIC (μg/mL) against Streptococcus pneumoniae A28272 [1]: 0.5 µg/mL (≈ 0.312 µM)
MIC (μg/mL) against Staphylococcus aureus A15090 [2]: 0.5 µg/mL (≈ 0.312 µM)
MIC (μg/mL) against Enterococcus faecalis A20688 [3]: 1.0 µg/mL (≈ 0.625 µM)

CNCCN(C)CC(NC(=O)c1csc(-c2nc3c(cc2O)-c2nc(cs2)C(=O)NC(C(C)O)C(=O)N/C(=C(\C)OC)c2nc(cs2)C(=O)NC2c4nc(cs4)C(=O)NC(COC(=O)c4c5c6c(cccc6n4O)COC(=O)C(O[C@H]4C[C@](C)(O)[C@H](N(C)C)[C@H](C)O4)C2OC5)c2nc-3cs2)n1)C(N)=O (stereo partly drawn) [Example 23]
MIC (μg/mL) against Streptococcus pneumoniae A28272 [1, 4]: 0.001 µg/mL (≈ 0.000655 µM)
MIC (μg/mL) against Staphylococcus aureus A15090 [2, 5]: 0.06 µg/mL (≈ 0.0393 µM)
MIC (μg/mL) against Enterococcus faecalis A20688 [3, 5]: 0.5 µg/mL (≈ 0.328 µM)

COC(C)=C1NC(=O)C(C(C)O)NC(=O)c2csc(n2)-c2cc(O)c(-c3nc(C(=O)NC(CN4CCN(c5cccnc5)CC4)C(N)=O)cs3)nc2-c2csc(n2)C2COC(=O)c3c4c5c(cccc5n3O)COC(=O)C(OC3CC(C)(O)C(N(C)C)C(C)O3)C(OC4)C(NC(=O)c3csc1n3)c1nc(cs1)C(=O)N2 (stereo not drawn) [Example 85]
MIC (μg/mL) against Streptococcus pneumoniae A28272 [1]: 0.007 µg/mL (≈ 0.00437 µM)
MIC (μg/mL) against Staphylococcus aureus A15090 [2]: 0.06 µg/mL (≈ 0.0375 µM)
MIC (μg/mL) against Enterococcus faecalis A20688 [3]: 0.25 µg/mL (≈ 0.156 µM)

CCNCCN(CC)CC(NC(=O)c1csc(-c2nc3c(cc2O)-c2nc(cs2)C(=O)NC(C(C)O)C(=O)N/C(=C(\C)OC)c2nc(cs2)C(=O)NC2c4nc(cs4)C(=O)NC(COC(=O)c4c5c6c(cccc6n4O)COC(=O)C(O[C@H]4C[C@](C)(O)[C@H](N(C)C)[C@H](C)O4)C2OC5)c2nc-3cs2)n1)C(N)=O (stereo partly drawn) [Example 25]
MIC (μg/mL) against Streptococcus pneumoniae A28272 [1, 4]: 0.0005 µg/mL (≈ 0.000322 µM)
MIC (μg/mL) against Staphylococcus aureus A15090 [2, 5]: 1.0 µg/mL (≈ 0.644 µM)
MIC (μg/mL) against Enterococcus faecalis A20688 [3, 5]: 2.0 µg/mL (≈ 1.29 µM)

CO/C(C)=C1/NC(=O)C(C(C)O)NC(=O)c2csc(n2)-c2cc(O)c(-c3nc(C(=O)NC(CNCc4cc(OC)c(OC)c(OC)c4)C(N)=O)cs3)nc2-c2csc(n2)C2COC(=O)c3c4c5c(cccc5n3O)COC(=O)C(O[C@H]3C[C@](C)(O)[C@H](N(C)C)[C@H](C)O3)C(OC4)C(NC(=O)c3csc1n3)c1nc(cs1)C(=O)N2 (stereo partly drawn) [Example 70]
MIC (μg/mL) against Streptococcus pneumoniae A28272 [1]: 0.06 µg/mL (≈ 0.0367 µM)
MIC (μg/mL) against Staphylococcus aureus A15090 [2]: 0.25 µg/mL (≈ 0.153 µM)
MIC (μg/mL) against Enterococcus faecalis A20688 [3]: 4.0 µg/mL (≈ 2.45 µM)

CN[C@@H]1[C@H](C)O[C@@H](OC2C(=O)OCc3cccc4c3c3c(n4O)C(=O)OCC4NC(=O)c5csc(n5)C(NC(=O)c5csc(n5)/C(=C(/C)OC)NC(=O)C(C(C)O)NC(=O)c5csc(n5)-c5cc(O)c(-c6nc(C(=O)NC(CN(C)CCO)C(N)=O)cs6)nc5-c5csc4n5)C2OC3)C[C@]1(C)O (stereo partly drawn) [Example 99]
MIC (μg/mL) against Streptococcus pneumoniae A28272 [1]: 0.015 µg/mL (≈ 0.01 µM)
MIC (μg/mL) against Staphylococcus aureus A15090 [2]: 0.03 µg/mL (≈ 0.02 µM)
MIC (μg/mL) against Enterococcus faecalis A20688 [3]: 0.125 µg/mL (≈ 0.0834 µM)

CCOC(=O)CN1CCN(CC(NC(=O)c2csc(-c3nc4c(cc3O)-c3nc(cs3)C(=O)NC(C(C)O)C(=O)N/C(=C(\C)OC)c3nc(cs3)C(=O)NC3c5nc(cs5)C(=O)NC(COC(=O)c5c6c7c(cccc7n5O)COC(=O)C(O[C@H]5C[C@](C)(O)[C@H](N(C)C)[C@H](C)O5)C3OC6)c3nc-4cs3)n2)C(N)=O)CC1 (stereo partly drawn) [Example 36]
MIC (μg/mL) against Streptococcus pneumoniae A28272 [1, 4]: 0.007 µg/mL (≈ 0.00435 µM)
MIC (μg/mL) against Staphylococcus aureus A15090 [2, 5]: 0.06 µg/mL (≈ 0.0373 µM)
MIC (μg/mL) against Enterococcus faecalis A20688 [3, 5]: 0.25 µg/mL (≈ 0.155 µM)

COC(C)=C1NC(=O)C(C(C)O)NC(=O)c2csc(n2)-c2cc(O)c(-c3nc(C(=O)NC(CN4CCCC4COc4cccnc4)C(N)=O)cs3)nc2-c2csc(n2)C2COC(=O)c3c4c5c(cccc5n3O)COC(=O)C(OC3CC(C)(O)C(N(C)C)C(C)O3)C(OC4)C(NC(=O)c3csc1n3)c1nc(cs1)C(=O)N2 (stereo not drawn) [Example 79]
MIC (μg/mL) against Streptococcus pneumoniae A28272 [1]: 0.001 µg/mL (≈ 0.000619 µM)
MIC (μg/mL) against Staphylococcus aureus A15090 [2]: 0.06 µg/mL (≈ 0.0371 µM)
MIC (μg/mL) against Enterococcus faecalis A20688 [3]: 0.125 µg/mL (≈ 0.0774 µM)

COCCOCCOCCN1CCN(CC(NC(=O)c2csc(-c3nc4c(cc3O)-c3nc(cs3)C(=O)NC(C(C)O)C(=O)NC(=C(C)OC)c3nc(cs3)C(=O)NC3c5nc(cs5)C(=O)NC(COC(=O)c5c6c7c(cccc7n5O)COC(=O)C(OC5CC(C)(O)C(N(C)C)C(C)O5)C3OC6)c3nc-4cs3)n2)C(N)=O)CC1 (stereo not drawn) [Example 72]
MIC (μg/mL) against Streptococcus pneumoniae A28272 [1]: 0.5 µg/mL (≈ 0.299 µM)
MIC (μg/mL) against Staphylococcus aureus A15090 [2]: 4.0 µg/mL (≈ 2.4 µM)
MIC (μg/mL) against Enterococcus faecalis A20688 [3]: 4.0 µg/mL (≈ 2.4 µM)

CO/C(C)=C1/NC(=O)C(C(C)O)NC(=O)c2csc(n2)-c2cc(O)c(-c3nc(C(=O)NC(CSCCc4nnn[nH]4)C(N)=O)cs3)nc2-c2csc(n2)C2COC(=O)c3c4c5c(cccc5n3O)COC(=O)C(O[C@H]3C[C@](C)(O)[C@H](N(C)C)[C@H](C)O3)C(OC4)C(NC(=O)c3csc1n3)c1nc(cs1)C(=O)N2 (stereo partly drawn) [Example 47]
MIC (μg/mL) against Streptococcus pneumoniae A28272 [1, 4]: 0.25 µg/mL (≈ 0.159 µM)
MIC (μg/mL) against Staphylococcus aureus A15090 [2, 5]: 2.0 µg/mL (≈ 1.28 µM)
MIC (μg/mL) against Enterococcus faecalis A20688 [3, 5]: 32 µg/mL (≈ 20.4 µM)

CO/C(C)=C1/NC(=O)C(C(C)O)NC(=O)c2csc(n2)-c2cc(O)c(-c3nc(C(=O)NC(CNCCN(CCN)CCN)C(N)=O)cs3)nc2-c2csc(n2)C2COC(=O)c3c4c5c(cccc5n3O)COC(=O)C(O[C@H]3C[C@](C)(O)[C@H](N(C)C)[C@H](C)O3)C(OC4)C(NC(=O)c3csc1n3)c1nc(cs1)C(=O)N2 (stereo partly drawn) [Example 12]
MIC (μg/mL) against Streptococcus pneumoniae A28272 [1, 4]: 0.5 µg/mL (≈ 0.316 µM)
MIC (μg/mL) against Staphylococcus aureus A15090 [2, 5]: 2.0 µg/mL (≈ 1.26 µM)
MIC (μg/mL) against Enterococcus faecalis A20688 [3, 5]: 4.0 µg/mL (≈ 2.53 µM)
